Here are results for 11 molecules from paper PMC6017830, “Furan- and Thiophene-2-Carbonyl Amino Acid Derivatives Activate Hypoxia-Inducible Factor via Inhibition of Factor Inhibiting Hypoxia-Inducible Factor-1” (Molecules : A Journal of Synthetic Chemistry and Natural …, 2018).

Data set [1] deals with HIF-HRE transcriptional activity in SKN:HRE-MLuc cells (reflects FIH-1 inhibition). As to the kind of experiment: HIF activity under hypoxia, HRE-MLuc luciferase reporter assay. Particulars: for activation at 100 µM / minimal effective concentration: Homo sapiens, SKN:HRE-MLuc cells, 3% O2, 24 h; for activation at 100 µM: read-out: 100 μM Activity (RLU intensity at 100 μM stimulation compared with the positive control DMOG); for minimal effective concentration: doses 100, 25, 6.3, 1.6 μM, DMOG 100 μM as positive control, read-out: 25% Activity (lower dose limit showing 25% of the RLU intensity of the positive control DMOG). Format: cell-based, human. Here is the method: To evaluate HIF transactivation following FIH-1 inhibition […], we employed a luciferase reporter assay system in the human neuroblastoma cell line SK-N-BE(2)c. […] Hereafter these HRE reporter cells were designated SKN:HRE-MLuc cells.
SKN:HRE-MLuc (4 × 10^4) were incubated for 24 h on a 96 well culture plate. The medium was replaced with complete media and the test compounds (100, 25, 6.3 and 1.6 μM). DMSO (0.1%) was used as a vehicle control, DMOG (100 μM) and FG4592 (100 μM) were used as a PHDs or FIH-1 inhibitor. The cells were incubated for 24 h under a humidified atmosphere of 5% CO2 and 3% O2 at 37 °C. After incubation, the MLuc activity in culture media was measured with luciferase substrate (Takara, Shiga, Japan) by LB960 luminometer (Berthold, Wildbad, Germany). The HIF activity was calculated as the MLuc intensity, based on the vehicle and positive controls. The lower limit dose out of 100 μM, 25 μM, 6.3 μM, 1.6 μM was listed in Table 1 and Table 2, where 25% RLU intensity was measured using DMOG as a positive control.
A general note: Reporter assays use an easily measured gene product as a stand-in for the process of interest.

For another data set, the system named is SKN:HRE-MLuc cells. As to the kind of experiment: MTS assay (cellular toxicity). Format: cell-based, human. The note with it: Homo sapiens; MTS assay. An excerpt: Next, we evaluated the activation of HIF by furan- and thiophene-2-carbonyl amino acid derivatives using the evaluation methods described above. Simultaneously, we investigated cellular toxicity for those derivatives with a 3-(4,5-dimethylthiazol-2-yl)-5-(3-carboxymethoxyphenyl)-2-(4-sulfophenyl)-2H-tetrazolium (MTS) assay. To indicate cellular membrane permeability, the partition coefficients, which are frequently represented by calculated logP (clogP) are listed in Table 1 and Table 2.
Cellular toxicity was measured using the CellTiter 96® Aqueous One Solution Cell Proliferation Assay kit (Promega, Madison, WI, USA). The cells were stimulated with each compound and treated with the CellTiter solution. After incubation for 3 h, the absorbance of the solutions at 492 nm was measured by Multiskan FC (Thermo Fisher Scientific, Waltham, MS, USA). As a negative control, wells with culture media were used. Wells treated with DMSO (0.1%) were used as a positive control. The IC50 values were determined using these controls.

With `COC(=O)CNC(=O)c1ccc(-c2ccc(-c3ccccc3)cc2)s1` [Compound 31, Methyl (5-((1,1′-biphenyl)-4-yl)thiophene-2-carbonyl)glycinate], the melting point – broadly, the temperature, or range, at which the solid turns liquid – lay in the range of 183 to 185 °C. Further, the activation at 100 µM in data set [1] is 0%. For the same molecule, in the data set with SKN:HRE-MLuc cells, the IC50 (usually the concentration needed to halve the response being measured) was more than 100 µM.
As to `CCOC(=O)[C@H](Cc1ccccc1)NC(=O)c1cc(-c2ccccc2)cs1` [Compound 27, (S)-Ethyl (4-phenylthiophene-2-carbonyl)phenylalaninate], the melting point lay in the range of 94 to 96 °C. The activation at 100 µM in data set [1] is 2%. Moreover, the IC50 in the data set on SKN:HRE-MLuc cells was more than 100 µM.
On to `CCOC(=O)[C@H](Cc1ccccc1)NC(=O)c1cc2ccccc2s1` [Compound 41, (S)-Ethyl (benzothiophene-2-carbonyl)phenylalaninate], for which, in data set [1], the activation at 100 µM worked out at 2%. This molecule returned an IC50 in the data set on SKN:HRE-MLuc cells of more than 100 µM.
The corresponding values for `CCOC(=O)[C@H](Cc1ccccc1)NC(=O)c1ccc(-c2ccc(-c3ccccc3)cc2)s1` [Compound 32, (S)-Ethyl (5-((1,1′-biphenyl)-4-yl)thiophene-2-carbonyl)phenylalaninate] are 0% and more than 100 µM.
Take `Cc1ccc(C(=O)N[C@H](Cc2c[nH]c3ccccc23)C(=O)O)s1` [Compound 16, (R)-(5-methylthiophene-2-carbonyl)tryptophan]: in data set [1], the activation at 100 µM was found to be 30% and the minimal effective concentration was 100 µM. In the data set on SKN:HRE-MLuc cells, this molecule registered an IC50 of more than 100 µM.
`Cc1ccc(C(=O)N[C@@H](C)C(=O)O)s1` [Compound 12, (S)-(5-Methylthiophene-2-carbonyl)alanine]: in data set [1], the activation at 100 µM was found to be 18%. For the same molecule, the IC50 in the data set on SKN:HRE-MLuc cells was more than 100 µM.
As for `COC(=O)[C@@H](Cc1c[nH]c2ccccc12)NC(=O)c1cc(-c2ccccc2)cs1` [Compound 29, (R)-Methyl (4-phenylthiophene-2-carbonyl)tryptophanate], the melting point lay within 145 to 149 °C. The activation at 100 µM in data set [1] was determined as 0%. In the data set with SKN:HRE-MLuc cells, the IC50 is more than 100 µM.
On to `COC(=O)[C@@H](Cc1c[nH]c2ccccc12)NC(=O)c1ccc(C)o1` [Compound 10, (R)-Methyl (5-methylfuran-2-carbonyl)tryptophanate], for which, in data set [1], the activation at 100 µM came to 0% and the minimal effective concentration was 6.3 µM. The molecule further had an IC50 with SKN:HRE-MLuc cells of more than 100 µM.
As to `COC(=O)CNC(=O)c1cc(-c2ccccc2)cs1` [Compound 26, Methyl (4-phenylthiophene-2-carbonyl)glycinate], the melting point was 93 to 96 °C. Also, the activation at 100 µM in data set [1] was 0%. Besides, the IC50 in the data set with SKN:HRE-MLuc cells is more than 100 µM.
Consider `COC(=O)[C@@H](Cc1ccccc1)NC(=O)c1ccc(C)s1` [Compound 14, (R)-Methyl (5-methylthiophene-2-carbonyl)phenylalaninate], for which the activation at 100 µM in data set [1] stood at 0%. In addition, the IC50 with SKN:HRE-MLuc cells is more than 100 µM.
On to `COC(=O)CNC(=O)c1ccco1` [Compound 1, Methyl (furan-2-carbonyl)glycinate], for which, in data set [1], the activation at 100 µM turned out to be 20% and the minimal effective concentration was 25 µM. Besides, the “HIF activity (HRE-MLuc reporter), result in words” value in data set [1] (hypoxic conditions (3% O2), 24 h, reference compounds at 100 μM) was “stabilized HIF and transactivated the HRE-driven MLuc reporter”. The molecule further yielded a 50% inhibitory concentration (IC50) with SKN:HRE-MLuc cells of more than 100 µM.
